Test results published in publication PMC12582971, “NeuproGemp, a polyphenol-rich botanical formula, ameliorates Alzheimer’s-like pathology in APP/PS1 mice via inhibition of human glutaminyl cyclase” (Frontiers in Pharmacology, 2025).

Biological target: T1, human glutaminyl cyclase (hQC) (Homo sapiens, UniProt Q16769)
T1 construct: covering residues Ala33 to Leu361, was cloned into the pQE-80L expression vector; polyhistidine tag; made in house; host or cells: E. coli BL21 (DE3)
Test: hQC inhibition assay (coupled spectrophotometric, H-Gln-Gln-OH substrate)
Assay type: biochemical
Conditions: for IC50: 0.1 μM hQC, 1 mM H-Gln-Gln-OH, 25 °C, pH 8.0, mean ± SD, three experiments, read-out: IC50 against hQC; for inhibitory effect on hQC (in words): dose-response assay
Procedure: The coding sequence of human glutaminyl cyclase (hQC), covering residues Ala33 to Leu361, was cloned into the pQE-80L expression vector utilizing the restriction sites BamHI and HindIII. This recombinant plasmid was introduced into E. coli BL21 (DE3) cells through heat shock transformation. For protein expression, the transformed E. coli cells were grown in Luria-Bertani (LB) medium supplemented with 100 mg/L ampicillin at 37 °C. Once the optical density at 600 nm (OD600) reached 0.6, protein expression was induced using 0.1 mM isopropyl β-D-1-thiogalactopyranoside (IPTG), and the culture was incubated at 24 °C for 48 h, optimizing for soluble protein yield under reduced temperature conditions. After induction, the cells were harvested by centrifugation at 6,000 rpm for 20 min. The resulting cell pellet was resuspended in a lysis buffer containing 50 mM Tris-HCl (pH 8.5), 150 mM NaCl, and 20 mM imidazole. Cell disruption was performed using high-pressure homogenization via a microfluidizer (Microfluidics). The lysate was clarified through centrifugation, and the soluble protein fraction was purified using nickel-nitrilotriacetic acid (Ni-NTA) affinity chromatography, leveraging the polyhistidine tag for selective binding to the resin. The bound hQC protein was eluted and further purified using standard chromatographic techniques.
The inhibitory effects of various compounds on human glutaminyl cyclase (hQC) were assessed using a validated spectrophotometric assay. In this assay, glutamic dehydrogenase (EC 1.4.1.3; Sigma-Aldrich) was utilized as a coupling enzyme to indirectly quantify hQC activity, employing H-Gln-Gln-OH (Bachem) as the specific substrate. The reaction mixture consisted of 50 mM Tris-HCl (pH 8.0), 0.25 mM NADH, 30 U of glutamic dehydrogenase, 15 mM α-ketoglutaric acid, and 0.1 μM hQC. Inhibitors were introduced to the reaction mixture and allowed to incubate for 5 min at 25 °C to promote interaction with the enzyme. The enzymatic reaction was initiated by adding 1 mM of the substrate, and the progression was monitored by measuring the absorbance at 340 nm, corresponding to the oxidation of NADH. The IC50 values for the inhibitors were calculated by plotting initial reaction rates against the logarithmic concentrations of the inhibitors. Nonlinear regression fitting was conducted using GraphPad Prism 6 software, enabling accurate quantification of the inhibitors’ potencies and facilitating a detailed analysis of their inhibitory effects on hQC.
The enzymatic activity of recombinant hQC was measured using a coupled spectrophotometric assay with H-Gln-Gln-OH as substrate and glutamic dehydrogenase as a coupling enzyme. […] Initial reaction rates were monitored by measuring NADH oxidation at 340 nm, and IC50 values were calculated using nonlinear regression in GraphPad Prism 6. Data are presented as mean ± SD from three independent experiments. Lower IC50 values indicate stronger inhibition of hQC activity.

T1 sequence (Q16769 33-361): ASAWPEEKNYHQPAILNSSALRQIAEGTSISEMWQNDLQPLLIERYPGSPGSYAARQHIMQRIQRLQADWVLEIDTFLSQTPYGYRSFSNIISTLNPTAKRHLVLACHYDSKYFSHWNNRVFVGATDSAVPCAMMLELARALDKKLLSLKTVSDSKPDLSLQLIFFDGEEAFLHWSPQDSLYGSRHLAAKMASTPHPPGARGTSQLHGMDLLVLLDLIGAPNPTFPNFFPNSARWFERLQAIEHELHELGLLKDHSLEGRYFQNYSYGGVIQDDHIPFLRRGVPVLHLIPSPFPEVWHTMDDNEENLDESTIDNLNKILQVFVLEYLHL

Row | SMILES | IC50 | inhibitory effect on hQC (in words) | hQC activity suppression at 100 μM
1 | O=C(OCC1OC(OC(=O)c2cc(O)c(O)c(O)c2)C(O)C(OC(=O)c2cc(O)c(O)c(O)c2)C1O)c1cc(O)c(O)c(O)c1 (stereo not drawn) [GG3, 1,3,6-Trigalloylglucose] | 4.19 µM | only weak inhibitory effects | –
2 | OCc1ccc(O[C@@H]2O[C@H](CO)[C@@H](O)[C@H](O)[C@H]2O)cc1 [Gastrodin] | – | only weak inhibitory effects | less than 50%
3 | C[C@@]12C[C@@]3(O)O[C@@H](O1)[C@]1(COC(=O)c4ccccc4)[C@H]3C[C@@]12O[C@@H]1O[C@H](CO)[C@@H](O)[C@H](O)[C@H]1O [Paeoniflorin] | – | minimal to no significant inhibition | less than 50%
4 | O=C(OCC1OC(OC(=O)c2cc(O)c(O)c(O)c2)C(OC(=O)c2cc(O)c(O)c(O)c2)C(OC(=O)c2cc(O)c(O)c(O)c2)C1O)c1cc(O)c(O)c(O)c1 (stereo not drawn) [GG4, 1,2,3,6-Tetragalloylglucose] | 1.43 µM | – | –
5 | O=C(/C=C/c1ccccc1)OC[C@H]1O[C@@H](OC(=O)c2cc(O)c(O)c(O)c2)[C@H](O)[C@@H](O)[C@@H]1O [1-o-galloyl-6-o-cinnamoylglucose] | – | minimal to no significant inhibition | less than 50%
